Assay results: the NIST ThermoML archive (doi:10.1016/j.jct.2008.07.011)

Test: osmotic coefficient (dimensionless); mn = molality of the nth substance listed, in mol/kg
Settings: Liquid, vapor pressure osmometry

CCC[n+]1ccn(C)c1.[Br-] [1-methyl-3-propylimidazolium bromide] + O
osmotic coefficient
Settings	298.15 K	308.15 K	318.15 K	328.15 K
m1 = 0.0071	0.942	0.928	0.961	0.947
m1 = 0.0141	0.917	0.925	0.951	0.95
m1 = 0.0243	0.903	0.902	0.925	0.924
m1 = 0.0338	0.894	0.904	0.92	0.926
m1 = 0.0462	0.89	0.892	0.91	0.91
m1 = 0.0667	0.865	0.875	0.898	0.896
m1 = 0.0898	0.855	0.864	0.874	0.875
m1 = 0.1081	0.839	0.851	0.867	0.864
m1 = 0.1529	0.82	0.835	0.857	0.851
m1 = 0.194	0.807	0.816	0.836	0.842
m1 = 0.2403	0.798	0.802	0.812	0.818
m1 = 0.3018	0.783	0.792	0.805	0.813
m1 = 0.3677	0.762	0.772	0.793	0.794
m1 = 0.4338	0.755	0.761	0.776	0.787
m1 = 0.5359	0.742	0.749	0.753	0.76
m1 = 0.8595	0.706	0.72	0.728	0.735
m1 = 1.029	0.702	0.714	0.717	0.724
m1 = 1.604	0.674	0.696	0.702	0.704
m1 = 2.104	0.676	0.69	0.694	0.701
m1 = 2.705	0.671	0.683	0.701	0.709

CCCCCn1cc[n+](C)c1.[Br-] [1-pentyl-3-methylimidazolium bromide] + O
osmotic coefficient
Settings	298.15 K	308.15 K	318.15 K	328.15 K
m1 = 0.0179	0.911	0.987	0.94	1.01
m1 = 0.025	0.925	0.964	0.924	0.996
m1 = 0.0301	0.906	0.933	0.912	0.982
m1 = 0.0518	0.878	0.892	0.895	0.955
m1 = 0.0722	0.861	0.872	0.882	0.92
m1 = 0.0904	0.852	0.856	0.871	0.91
m1 = 0.1155	0.826	0.843	0.857	0.852
m1 = 0.1697	0.808	0.811	0.831	0.843
m1 = 0.2113	0.793	0.798	0.816	0.827
m1 = 0.2308	0.785	0.786	0.813	0.811
m1 = 0.3311	0.745	0.76	0.776	0.782
m1 = 0.3787	0.726	0.745	0.762	0.766
m1 = 0.4716	0.704	0.727	0.749	0.754
m1 = 0.5627	0.694	0.709	0.72	0.734
m1 = 0.6532	0.679	0.689	0.697	0.706
m1 = 0.7246	0.669	0.682	0.692	0.697
m1 = 0.8353	0.657	0.666	0.68	0.681
m1 = 1.026	0.618	0.637	0.632	0.649
m1 = 1.509	0.583	0.588	0.594	0.608
m1 = 2.005	0.561	0.565	0.568	0.594

CCCCCCn1cc[n+](C)c1.[Br-] [3-hexyl-1-methyl-1H-imidazolium bromide] + O
osmotic coefficient
Settings	298.15 K	308.15 K	318.15 K	328.15 K
m1 = 0.0155	0.876	0.889	0.91	0.935
m1 = 0.021	0.869	0.87	0.876	0.911
m1 = 0.0305	0.854	0.858	0.866	0.869
m1 = 0.0467	0.835	0.838	0.848	0.861
m1 = 0.0633	0.815	0.811	0.816	0.821
m1 = 0.0819	0.761	0.763	0.8	0.815
m1 = 0.121	0.741	0.742	0.775	0.79
m1 = 0.158	0.703	0.732	0.754	0.76
m1 = 0.1845	0.708	0.727	0.742	0.75
m1 = 0.2503	0.67	0.69	0.702	0.719
m1 = 0.3312	0.65	0.659	0.672	0.67
m1 = 0.4111	0.602	0.605	0.625	0.63
m1 = 0.5114	0.554	0.585	0.589	0.592
m1 = 0.5898	0.54	0.546	0.555	0.569
m1 = 0.6829	0.517	0.513	0.537	0.544
m1 = 0.7428	0.488	0.489	0.509	0.514
m1 = 1.119	0.384	0.397	0.413	0.429
m1 = 1.686	0.312	0.322	0.352	0.362
m1 = 2.398	0.271	0.292	0.309	0.328
